Measurements: ChEMBL document CHEMBL2021806, “GnRH-III based multifunctional drug delivery systems containing daunorubicin and methotrexate” (Eur J Med Chem, 2012)
The source made the active and inactive calls. The rule behind the calls is not given here.

How the values were obtained:
[1] = test system: MONO-MAC-6; assay: Antiproliferative activity against human MONO-MAC-6 cells assessed as inhibition of cell viability at 10^-6 M after 24 hrs by cell counting method; format: functional; conditions: MONO-MAC-6, 24 h, values are per cent of control
[2] = test system: MONO-MAC-6; assay: Antiproliferative activity against human MONO-MAC-6 cells assessed as inhibition of cell viability at 10^-9 M after 24 hrs by cell counting method; format: functional; conditions: MONO-MAC-6, 24 h, values are per cent of control
[3] = test system: Serum; assay: Metabolic stability in human serum at 10 uM after 24 hrs by LC-MS analysis; format: ADME, cell-free
[4] = test system: MONO-MAC-6; assay: Induction of adhesion in human MONO-MAC-6 cells at 10^-9 M after 24 hrs by electrical impedence method relative to control; format: functional
[5] = test system: MONO-MAC-6; assay: Antiproliferative activity against human MONO-MAC-6 cells assessed as inhibition of cell viability at 10^-9 M after 72 hrs by cell counting method; format: functional; conditions: MONO-MAC-6, 72 h, values are per cent of control
[6] = test system: MONO-MAC-6; assay: Antiproliferative activity against human MONO-MAC-6 cells assessed as cell viability at 10^-6 M after 72 hrs by cell counting method relative to untreated control; format: functional
[7] = test system: MONO-MAC-6; assay: Antiproliferative activity against human MONO-MAC-6 cells assessed as inhibition of cell viability at 10^-8 M after 48 hrs by cell counting method; format: functional; conditions: MONO-MAC-6, 48 h, values are per cent of control
[8] = test system: MONO-MAC-6; assay: Antiproliferative activity against human MONO-MAC-6 cells assessed as inhibition of cell viability at 10^-7 M after 72 hrs by cell counting method; format: functional; conditions: MONO-MAC-6, 72 h, values are per cent of control
[9] = test system: HT-29; assay: Cytostatic activity against human HT-29 cells after 4 days by MTT assay; format: functional, cell-based; conditions: HT-29, 96 h
[10] = test system: MONO-MAC-6; assay: Induction of adhesion in human MONO-MAC-6 cells at 10^-7 to 10^-6 M after 24 hrs by electrical impedence method relative to control; format: functional, cell-based
[11] = test system: MCF7; assay: Cytostatic activity against human MCF7 cells after 4 days by MTT assay; format: functional, cell-based; conditions: MCF7, 96 h
[12] = Drug metabolism in rat lysosomal homogenate assessed as H-Lys(MTX)HDWK(Dau=Aoa)P-OH formation at 0.1 ug/ul after 24 hrs by LC-MS analysis; format: ADME, tissue-based, Lysosome; conditions: tissue homogenate
[13] = test system: MONO-MAC-6; assay: Antiproliferative activity against human MONO-MAC-6 cells assessed as inhibition of cell viability at 10^-6 M after 72 hrs by cell counting method; format: functional; conditions: MONO-MAC-6, 72 h, values are per cent of control
[14] = test system: MONO-MAC-6; assay: Antiproliferative activity against human MONO-MAC-6 cells assessed as inhibition of cell viability at 10^-7 M after 48 hrs by cell counting method; format: functional; conditions: MONO-MAC-6, 48 h, values are per cent of control
[15] = test system: MONO-MAC-6; assay: Antiproliferative activity against human MONO-MAC-6 cells assessed as inhibition of cell viability at 10^-6 M after 48 hrs by cell counting method; format: functional; conditions: MONO-MAC-6, 48 h, values are per cent of control
[16] = test system: MONO-MAC-6; assay: Antiproliferative activity against human MONO-MAC-6 cells assessed as cell viability at 10^-6 M after 24 hrs by cell counting method relative to untreated control; format: functional
[17] = test system: MONO-MAC-6; assay: Antiproliferative activity against human MONO-MAC-6 cells assessed as inhibition of cell viability at 10^-8 M after 72 hrs by cell counting method; format: functional; conditions: MONO-MAC-6, 72 h, values are per cent of control
[18] = test system: MONO-MAC-6; assay: Antiproliferative activity against human MONO-MAC-6 cells assessed as cell viability at 10^-6 M after 48 hrs by cell counting method relative to untreated control; format: functional
[19] = test system: MONO-MAC-6; assay: Antiproliferative activity against human MONO-MAC-6 cells assessed as inhibition of cell viability at 10^-7 M after 24 hrs by cell counting method; format: functional; conditions: MONO-MAC-6, 24 h, values are per cent of control
[20] = test system: LNCaP; assay: Cytostatic activity against human LNCAP cells after 4 days by MTT assay; format: functional, cell-based; conditions: 96 h
[21] = test system: MONO-MAC-6; assay: Antiproliferative activity against human MONO-MAC-6 cells assessed as inhibition of cell viability at 10^-9 M after 48 hrs by cell counting method; format: functional; conditions: MONO-MAC-6, 48 h, values are per cent of control
[22] = test system: MONO-MAC-6; assay: Antiproliferative activity against human MONO-MAC-6 cells assessed as inhibition of cell viability at 10^-8 M after 24 hrs by cell counting method; format: functional; conditions: MONO-MAC-6, 24 h, values are per cent of control
[23] = test system: MONO-MAC-6; assay: Induction of adhesion in human MONO-MAC-6 cells after 24 hrs by electrical impedence method; format: functional, cell-based
[24] = Drug metabolism in rat lysosomal homogenate assessed as H-Lys(Dau=Aoa)-OH formation at 0.1 ug/ul after 24 hrs by LC-MS analysis; format: ADME, tissue-based, Lysosome; conditions: tissue homogenate
[25] = test system: MONO-MAC-6; assay: Antiproliferative activity against human MONO-MAC-6 cells assessed as cell viability at 10^-9 to 10^-6 M after 48 hrs by cell counting method relative to untreated control; format: functional
[26] = test system: MONO-MAC-6; assay: Antiproliferative activity against human MONO-MAC-6 cells assessed as cell viability at 10^-9 to 10^-6 M after 72 hrs by cell counting method relative to untreated control; format: functional
[27] = test system: MONO-MAC-6; assay: Induction of adhesion in human MONO-MAC-6 cells at 10^-7 M after 1.5 hrs by electrical impedence method relative to control; format: functional
[28] = Antitumor activity against mouse C26 cells allografted in Balb/C mouse assessed as tumor growth inhibition; format: functional
[29] = test system: MONO-MAC-6; assay: Induction of adhesion in human MONO-MAC-6 cells at 10^-8 to 10^-6 M after 24 hrs by electrical impedence method relative to control; format: functional
[30] = test system: MONO-MAC-6; assay: Antiproliferative activity against human MONO-MAC-6 cells assessed as cell viability at 10^-7 M after 24 hrs by cell counting method relative to untreated control; format: functional
[31] = test system: MONO-MAC-6; assay: Induction of adhesion in human MONO-MAC-6 cells at 10^-9 to 10^-6 M after 24 hrs by electrical impedence method relative to control; format: functional
[32] = test system: MONO-MAC-6; assay: Induction of adhesion in human MONO-MAC-6 cells at 10^-11 to 10^-12 M after 24 hrs by electrical impedence method relative to control; format: functional, cell-based
[33] = test system: MONO-MAC-6; assay: Antiproliferative activity against human MONO-MAC-6 cells assessed as cell viability at 10^-7 to 10^-6 M after 48 hrs by cell counting method relative to untreated control; format: functional
[34] = test system: MONO-MAC-6; assay: Antiproliferative activity against human MONO-MAC-6 cells assessed as cell viability at 10^-7 to 10^-6 M after 72 hrs by cell counting method relative to untreated control; format: functional
[35] = Drug metabolism in rat lysosomal homogenate assessed as large peptide fragment EHWK(MTX)HDWK(Ac)-OH formation at 0.1 ug/ul after 24 hrs by LC-MS analysis; format: ADME, tissue-based, Lysosome; conditions: tissue homogenate
[36] = test system: Serum; assay: Metabolic stability in human serum at 10 uM after 24 hrs by RP-HPLC analysis; format: ADME, cell-free

Row | Structure (SMILES) | Stability [3] | IC50 [9] | IC50 [11] | IC50 [20] | viability, % of control at 1 µM [1] | viability, % of control at 0.001 µM [2] | Activity [4] | viability, % of control at 0.001 µM [5] | Ratio [6] | viability, % of control at 0.01 µM [7] | viability, % of control at 0.1 µM [8] | viability, % of control at 1 µM [13] | viability, % of control at 0.1 µM [14] | viability, % of control at 1 µM [15] | Ratio [16] | viability, % of control at 0.01 µM [17] | Ratio [18] | viability, % of control at 0.1 µM [19] | viability, % of control at 0.001 µM [21] | viability, % of control at 0.01 µM [22] | other results
1 | COc1cccc2c1C(=O)c1c(O)c3c(c(O)c1C2=O)C[C@@](O)(C(C)=O)C[C@@H]3O[C@H]1C[C@H](N)[C@H](O)[C@H](C)O1 [DAUNORUBICIN] |  | 0.2 µM | 0.4 µM | 0.1 µM | 46% | 97% |  | 21% |  | 35% | 14% | 16% | 26% | 27% |  | 17% |  | 59% | 36% | 95% | Ratio [25]: 0.45; Ratio [26]: 0.49; Activity [27]: 142%; growth inhibition (GI) [28]: 24.4%; Activity [29]: 121%; Ratio [30]: 0.85
2 | CN(Cc1cnc2nc(N)nc(N)c2n1)c1ccc(C(=O)N[C@@H](CCC(=O)O)C(=O)O)cc1 [METHOTREXATE] |  | 1.4 µM |  | 0.3 µM | 80% | 101% |  | 96% | 0.77 | 94% | 27% | 29% | 52% | 52% | 0.95 | 60% |  | 89% | 97% | 102% | Activity [31]: 140%; Activity [32]: Active; Ratio [33]: 0.98; Ratio [34]: 0.76
3 | CC(=O)NCCCC[C@H](NC(=O)[C@H](Cc1c[nH]c2ccccc12)NC(=O)[C@H](CC(=O)O)NC(=O)[C@H](Cc1cnc[nH]1)NC(=O)[C@H](CCCCNC(=O)[C@H](CCC(=O)O)NC(=O)c1ccc(N(C)Cc2cnc3nc(N)nc(N)c3n2)cc1)NC(=O)[C@H](Cc1c[nH]c2ccccc12)NC(=O)[C@H](Cc1cnc[nH]1)NC(=O)[C@@H]1CCC(=O)N1)C(=O)N1CCC[C@H]1C(=O)NCC(N)=O |  | > 50 µM | > 50 µM | > 50 µM |  |  |  |  |  |  |  |  |  |  |  |  |  |  |  |  | Drug metabolism [35]: Active; Stability [36]: Stable

More lines, main results first:

Row | Stability [3] | IC50 [9] | IC50 [11] | IC50 [20] | Structure (SMILES) | viability, % of control at 1 µM [1] | viability, % of control at 0.001 µM [2] | Activity [4] | viability, % of control at 0.001 µM [5] | Ratio [6] | viability, % of control at 0.01 µM [7] | viability, % of control at 0.1 µM [8] | viability, % of control at 1 µM [13] | viability, % of control at 0.1 µM [14] | viability, % of control at 1 µM [15] | Ratio [16] | viability, % of control at 0.01 µM [17] | Ratio [18] | viability, % of control at 0.1 µM [19] | viability, % of control at 0.001 µM [21] | viability, % of control at 0.01 µM [22] | other results
4 | Stable | 5.6 µM | 5.4 µM | 11.3 µM | COc1cccc2c1C(=O)c1c(O)c3c(c(O)c1C2=O)C[C@@](O)(/C(C)=N/OCC(=O)NCCCC[C@H](NC(=O)[C@H](CCC(=O)O)NC(=O)c1ccc(N(C)Cc2cnc4nc(N)nc(N)c4n2)cc1)C(=O)NCCCC[C@H](NC(=O)[C@H](Cc1c[nH]c2ccccc12)NC(=O)[C@H](CC(=O)O)NC(=O)[C@H](Cc1cnc[nH]1)NC(=O)[C@H](CO)NC(=O)[C@H](Cc1c[nH]c2ccccc12)NC(=O)[C@H](Cc1cnc[nH]1)NC(=O)[C@@H]1CCC(=O)N1)C(=O)N1CCC[C@H]1C(=O)NCC(N)=O)C[C@@H]3O[C@H]1C[C@H](N)[C@H](O)[C@H](C)O1 | 82% | 116% | 77.6% | 99% | 0.77 | 91% | 94% | 38% | 97% | 63% | 1 | 97% | 0.9 | 105% | 93% | 128% | Activity [10]: inactive; Drug metabolism [12]: Active
5 | Stable | 3.6 µM | 5.8 µM | 28.8 µM | COc1cccc2c1C(=O)c1c(O)c3c(c(O)c1C2=O)C[C@@](O)(/C(C)=N/OCC(=O)NCCCC[C@H](NC(=O)[C@H](Cc1c[nH]c2ccccc12)NC(=O)[C@H](CC(=O)O)NC(=O)[C@H](Cc1cnc[nH]1)NC(=O)[C@H](CCCCNC(=O)[C@H](CCC(=O)O)NC(=O)c1ccc(N(C)Cc2cnc4nc(N)nc(N)c4n2)cc1)NC(=O)[C@H](Cc1c[nH]c2ccccc12)NC(=O)[C@H](Cc1cnc[nH]1)NC(=O)[C@@H]1CCC(=O)N1)C(=O)N1CCC[C@H]1C(=O)NCC(N)=O)C[C@@H]3O[C@H]1C[C@H](N)[C@H](O)[C@H](C)O1 | 88% | 108% | 135% | 81% | 0.95 | 92% | 104% | 76% | 94% | 86% | 1.06 | 103% | 0.98 | 98% | 89% | 103% | Activity [23]: Dose-dependent effect; Drug metabolism [24]: Active
